Experimental data reported in patent US20240270821A1, “GIP/GLP1/GCG TRI-RECEPTOR AGONISTS AND USES THEREOF” (priority 2023, published 2024).
Starred links: 1 amine or outer side, 2 acyl side, 3 side chain; linkers in the order of their positions; H or OH if unused. Non-standard residues stand in square brackets, D forms with d. Residues, ends and D or L forms follow the SMILES beside them. Groups on a side chain read outwards from the residue. *: point of attachment. C18 diacid = O=C(O)CCCCCCCCCCCCCCCCC(=O)*; γGlu = O=C(O)[C@H](CCC(=O)[*:2])N[*:1]; αMeF = C[C@](N)(Cc1ccccc1)C(=O)O; αMeL = CC(C)C[C@](C)(N)C(=O)O; αMeS = C[C@](N)(CO)C(=O)O; AEEA = NCCOCCOCC(=O)O; Aib = CC(C)(N)C(=O)O

What was measured:
Type in all cases: cell-based
hGIPR [1] = target: T1, hGIPR (Homo sapiens, UniProt P48546); assay: Functional cAMP activity in the presence of 1% HSA; details: read-out: cAMP Rel EC50, hGIPR
T1 sequence (P48546 22-466): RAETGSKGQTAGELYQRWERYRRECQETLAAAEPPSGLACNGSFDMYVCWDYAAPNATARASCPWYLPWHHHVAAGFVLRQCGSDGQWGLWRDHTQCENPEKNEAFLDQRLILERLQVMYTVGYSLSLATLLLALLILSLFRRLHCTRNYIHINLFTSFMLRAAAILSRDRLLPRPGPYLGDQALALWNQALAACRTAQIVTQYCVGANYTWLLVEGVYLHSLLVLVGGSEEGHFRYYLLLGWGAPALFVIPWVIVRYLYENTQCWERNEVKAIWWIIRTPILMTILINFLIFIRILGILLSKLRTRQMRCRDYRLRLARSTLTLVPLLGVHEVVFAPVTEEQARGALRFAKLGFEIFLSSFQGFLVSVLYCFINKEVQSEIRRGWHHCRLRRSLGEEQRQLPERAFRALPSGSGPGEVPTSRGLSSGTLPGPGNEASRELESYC

hGLP-1R [2] = target: T2, hGLP-1R (Homo sapiens, UniProt P43220); assay: Functional cAMP activity in the presence of 1% HSA; details: read-out: cAMP Rel EC50, hGLP-1R
T2 sequence (P43220 24-463): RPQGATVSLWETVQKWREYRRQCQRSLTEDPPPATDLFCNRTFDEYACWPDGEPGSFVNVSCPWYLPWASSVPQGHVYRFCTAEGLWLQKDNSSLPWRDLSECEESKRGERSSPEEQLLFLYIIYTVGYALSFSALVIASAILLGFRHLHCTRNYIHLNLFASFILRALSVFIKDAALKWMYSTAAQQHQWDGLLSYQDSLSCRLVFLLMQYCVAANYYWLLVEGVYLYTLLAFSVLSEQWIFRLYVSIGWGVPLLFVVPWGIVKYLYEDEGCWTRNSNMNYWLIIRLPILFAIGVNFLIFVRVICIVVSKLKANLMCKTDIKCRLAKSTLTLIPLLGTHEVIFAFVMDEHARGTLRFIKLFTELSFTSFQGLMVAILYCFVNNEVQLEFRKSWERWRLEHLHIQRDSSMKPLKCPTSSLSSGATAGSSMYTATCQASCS

human GcgR = human GcgR (Homo sapiens, UniProt P47871); assay: Functional cAMP activity in the presence of 1% HSA; details: read-out: cAMP Rel EC50, hGcgR
Chain of human GcgR (P47871 26-477): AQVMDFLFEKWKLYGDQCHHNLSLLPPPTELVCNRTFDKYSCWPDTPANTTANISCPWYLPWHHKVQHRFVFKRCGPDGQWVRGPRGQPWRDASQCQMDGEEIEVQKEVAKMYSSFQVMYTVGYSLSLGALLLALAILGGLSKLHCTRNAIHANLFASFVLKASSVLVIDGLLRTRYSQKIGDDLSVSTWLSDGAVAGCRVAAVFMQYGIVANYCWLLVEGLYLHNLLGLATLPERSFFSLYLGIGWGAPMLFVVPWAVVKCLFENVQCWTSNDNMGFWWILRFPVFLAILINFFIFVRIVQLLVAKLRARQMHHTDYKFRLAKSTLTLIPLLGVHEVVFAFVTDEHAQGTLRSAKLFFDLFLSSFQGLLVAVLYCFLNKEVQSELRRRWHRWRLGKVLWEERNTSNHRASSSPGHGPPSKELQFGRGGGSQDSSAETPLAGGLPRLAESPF

hGIPR [3] = target: T1, hGIPR; assay: Functional cAMP activation in the presence of 0.1% casein (no HSA); details: read-out: Relative cAMP EC50, hGIPR;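 on Relative cAMP EC50, hGIPR: intracellular cAMP rise after 30 min at 37 °C read by HTRF against a standard curve, scaled between buffer alone (0%) and top control ligand concentration (100%), four-parameter fit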;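 on Relative cAMP EC50, hGLP-1R: intracellular cAMP rise after 30 min at 37 °C read by HTRF, normalized between buffer only (0%) and maximal control ligand (100%), four-parameter variable-slope fit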;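 on Relative cAMP EC50, hGcgR: intracellular cAMP rise after 30 min at 37 °C, read by HTRF against a cAMP standard curve, scaled from buffer only (0%) to maximal control ligand response (100%)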
hGLP-1R [4] = target: T2, hGLP-1R; assay: as above; details: read-out: Relative cAMP EC50, hGLP-1R
hGcgR = hGcgR (Homo sapiens, UniProt P47871); assay: as above; details: read-out: Relative cAMP EC50, hGcgR;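 further: intracellular cAMP rise after 30 min at 37 °C, read by HTRF against a cAMP standard curve, scaled from buffer only (0%) to maximal control ligand response (100%)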
Chain of hGcgR (P47871 26-477): as above

SMILES	EC50 (hGIPR [1])	EC50 (hGLP-1R [2])	EC50 (human GcgR)	EC50 (hGIPR [3])	EC50 (hGLP-1R [4])	EC50 (hGcgR)
CC[C@H](C)[C@H](NC(=O)[C@H](Cc1ccccc1)NC(=O)[C@H](C)NC(=O)C(C)(C)NC(=O)[C@H](CCC(N)=O)NC(=O)[C@H](C)NC(=O)[C@H](CCCCNC(=O)COCCOCCNC(=O)CC[C@H](NC(=O)CCCCCCCCCCCCCCCCC(=O)O)C(=O)O)NC(=O)[C@H](CCCCN)NC(=O)[C@H](CC(=O)O)NC(=O)[C@H](CC(C)C)NC(=O)[C@H](CC(C)C)NC(=O)[C@@H](NC(=O)[C@H](CO)NC(=O)[C@H](Cc1ccc(O)cc1)NC(=O)[C@H](CC(=O)O)NC(=O)[C@H](CO)NC(=O)[C@@H](NC(=O)[C@](C)(Cc1ccccc1)NC(=O)[C@@H](NC(=O)CNC(=O)[C@H](CCC(N)=O)NC(=O)C(C)(C)NC(=O)[C@@H](N)Cc1ccc(O)cc1)[C@@H](C)O)[C@@H](C)O)[C@@H](C)CC)C(=O)N[C@@H](CCC(=O)O)C(=O)N[C@@H](Cc1ccc(O)cc1)C(=O)N[C@@H](CC(C)C)C(=O)N[C@@H](CCC(=O)O)C(=O)N[C@@H](CCC(=O)O)C(=O)NCC(=O)NCC(=O)N1CCC[C@H]1C(=O)N[C@@H](CO)C(=O)N[C@@H](CO)C(=O)NCC(=O)N[C@@H](C)C(=O)N1CCC[C@H]1C(=O)N1CCC[C@H]1C(=O)N1CCC[C@H]1C(=O)N[C@@H](CO)C(N)=O [Example 392] (H-Y[Aib]QGT[αMeF]TSDYSILLDKK([AEEA-γGlu-C18 diacid])AQ[Aib]AFIEYLEEGGPSSGAPPPS-NH2)	28.7 nM	41.5 nM	611 nM	0.0571 nM	0.253 nM	3.02 nM
CC[C@H](C)[C@H](NC(=O)[C@H](Cc1ccccc1)NC(=O)[C@H](C)NC(=O)C(C)(C)NC(=O)[C@H](CCC(N)=O)NC(=O)[C@H](C)NC(=O)[C@H](CCCCNC(=O)COCCOCCNC(=O)CC[C@H](NC(=O)CCCCCCCCCCCCCCCCC(=O)O)C(=O)O)NC(=O)[C@H](CCCCN)NC(=O)[C@H](CC(=O)O)NC(=O)[C@H](CC(C)C)NC(=O)[C@H](CC(C)C)NC(=O)[C@@H](NC(=O)[C@](C)(CO)NC(=O)[C@H](Cc1ccc(O)cc1)NC(=O)[C@H](CC(=O)O)NC(=O)[C@H](CO)NC(=O)[C@@H](NC(=O)[C@](C)(Cc1ccccc1)NC(=O)[C@@H](NC(=O)CNC(=O)[C@H](CCC(N)=O)NC(=O)C(C)(C)NC(=O)[C@@H](N)Cc1ccc(O)cc1)[C@@H](C)O)[C@@H](C)O)[C@@H](C)CC)C(=O)N[C@@H](CCC(=O)O)C(=O)N[C@@H](Cc1ccc(O)cc1)C(=O)N[C@@H](CC(C)C)C(=O)N[C@@H](CCC(=O)O)C(=O)N[C@@H](CCC(=O)O)C(=O)NCC(=O)NCC(=O)N1CCC[C@H]1C(=O)N[C@@H](CO)C(=O)N[C@@H](CO)C(=O)NCC(=O)N[C@@H](C)C(=O)N1CCC[C@H]1C(=O)N1CCC[C@H]1C(=O)N1CCC[C@H]1C(=O)N[C@@H](CO)C(N)=O [Example 393] (H-Y[Aib]QGT[αMeF]TSDY[αMeS]ILLDKK([AEEA-γGlu-C18 diacid])AQ[Aib]AFIEYLEEGGPSSGAPPPS-NH2)	12.4 nM	29.6 nM	151 nM	0.0458 nM	0.211 nM	0.947 nM
CC[C@H](C)[C@H](NC(=O)[C@H](Cc1ccccc1)NC(=O)[C@H](C)NC(=O)C(C)(C)NC(=O)[C@H](CCC(N)=O)NC(=O)[C@H](C)NC(=O)[C@H](CCCCNC(=O)COCCOCCNC(=O)CC[C@H](NC(=O)CCCCCCCCCCCCCCCCC(=O)O)C(=O)O)NC(=O)[C@H](CCCCN)NC(=O)[C@H](CC(=O)O)NC(=O)[C@H](CC(C)C)NC(=O)[C@](C)(CC(C)C)NC(=O)[C@@H](NC(=O)[C@H](CO)NC(=O)[C@H](Cc1ccc(O)cc1)NC(=O)[C@H](CC(=O)O)NC(=O)[C@H](CO)NC(=O)[C@@H](NC(=O)[C@](C)(Cc1ccccc1)NC(=O)[C@@H](NC(=O)CNC(=O)[C@H](CCC(N)=O)NC(=O)C(C)(C)NC(=O)[C@@H](N)Cc1ccc(O)cc1)[C@@H](C)O)[C@@H](C)O)[C@@H](C)CC)C(=O)N[C@@H](CCC(=O)O)C(=O)N[C@@H](Cc1ccc(O)cc1)C(=O)N[C@@H](CC(C)C)C(=O)N[C@@H](CCC(=O)O)C(=O)N[C@@H](CCC(=O)O)C(=O)NCC(=O)NCC(=O)N1CCC[C@H]1C(=O)N[C@@H](CO)C(=O)N[C@@H](CO)C(=O)NCC(=O)N[C@@H](C)C(=O)N1CCC[C@H]1C(=O)N1CCC[C@H]1C(=O)N1CCC[C@H]1C(=O)N[C@@H](CO)C(N)=O [Example 394] (H-Y[Aib]QGT[αMeF]TSDYSI[αMeL]LDKK([AEEA-γGlu-C18 diacid])AQ[Aib]AFIEYLEEGGPSSGAPPPS-NH2)	7.22 nM	33.2 nM	1090 nM	0.018 nM	0.226 nM	5.63 nM
CC[C@H](C)[C@H](NC(=O)[C@H](Cc1ccccc1)NC(=O)[C@H](C)NC(=O)C(C)(C)NC(=O)[C@H](CCC(N)=O)NC(=O)[C@H](C)NC(=O)[C@H](CCCCNC(=O)COCCOCCNC(=O)CC[C@H](NC(=O)CCCCCCCCCCCCCCCCC(=O)O)C(=O)O)NC(=O)[C@H](CCCCN)NC(=O)[C@H](CC(=O)O)NC(=O)[C@H](CC(C)C)NC(=O)[C@](C)(CC(C)C)NC(=O)[C@@H](NC(=O)[C@H](CO)NC(=O)[C@H](Cc1ccc(O)cc1)NC(=O)[C@H](CC(=O)O)NC(=O)[C@H](CO)NC(=O)[C@@H](NC(=O)[C@](C)(Cc1ccccc1)NC(=O)[C@@H](NC(=O)CNC(=O)[C@H](CCC(N)=O)NC(=O)C(C)(C)NC(=O)[C@@H](N)Cc1ccc(O)cc1)[C@@H](C)O)[C@@H](C)O)[C@@H](C)CC)C(=O)N[C@@H](CCC(=O)O)C(=O)N[C@@H](Cc1ccc(O)cc1)C(=O)N[C@@H](CC(C)C)C(=O)N[C@@H](CCC(=O)O)C(=O)N[C@@H](CCC(=O)O)C(=O)NCC(=O)NCC(=O)N1CCC[C@H]1C(=O)N[C@@H](CO)C(=O)N[C@@H](CO)C(=O)NCC(=O)N[C@@H](C)C(=O)N1CCC[C@H]1C(=O)N1CCC[C@H]1C(=O)N1CCC[C@H]1C(=O)N[C@@H](CO)C(=O)N[C@@H](CCC(=O)O)C(=O)NCC(N)=O [Example 395]	6.69 nM	34.7 nM	1190 nM	0.0248 nM	0.349 nM	5.55 nM
CC[C@H](C)[C@H](NC(=O)[C@H](Cc1ccccc1)NC(=O)[C@H](C)NC(=O)C(C)(C)NC(=O)[C@H](CCC(N)=O)NC(=O)[C@H](C)NC(=O)[C@H](CCCCNC(=O)COCCOCCNC(=O)CC[C@H](NC(=O)CCCCCCCCCCCCCCCCC(=O)O)C(=O)O)NC(=O)[C@H](CCCCN)NC(=O)[C@H](CC(=O)O)NC(=O)[C@H](CC(C)C)NC(=O)[C@](C)(CC(C)C)NC(=O)[C@@H](NC(=O)[C@H](CO)NC(=O)[C@H](Cc1ccc(O)cc1)NC(=O)[C@H](CC(=O)O)NC(=O)[C@H](CO)NC(=O)[C@@H](NC(=O)[C@](C)(Cc1ccccc1)NC(=O)[C@@H](NC(=O)CNC(=O)[C@H](CCC(N)=O)NC(=O)C(C)(C)NC(=O)[C@@H](N)Cc1ccc(O)cc1)[C@@H](C)O)[C@@H](C)O)[C@@H](C)CC)C(=O)N[C@@H](CCC(=O)O)C(=O)N[C@@H](Cc1ccc(O)cc1)C(=O)N[C@@H](CC(C)C)C(=O)N[C@@H](CCC(=O)O)C(=O)N[C@@H](CCC(=O)O)C(=O)NCC(=O)NCC(=O)N1CCC[C@H]1C(=O)N[C@@H](CO)C(=O)N[C@@H](CO)C(=O)NCC(=O)N[C@@H](C)C(=O)N1CCC[C@H]1C(=O)N1CCC[C@H]1C(=O)N1CCC[C@H]1C(=O)N[C@@H](CCC(=O)O)C(N)=O [Example 396] (H-Y[Aib]QGT[αMeF]TSDYSI[αMeL]LDKK([AEEA-γGlu-C18 diacid])AQ[Aib]AFIEYLEEGGPSSGAPPPE-NH2)	9.5 nM	38.2 nM	468 nM	0.024 nM	0.293 nM	4.99 nM
